Measured values: ChEMBL document CHEMBL1240366, “Blockade of X4-tropic HIV-1 cellular entry by GSK812397, a potent noncompetitive CXCR4 receptor antagonist” (Antimicrob Agents Chemother, 2010)

Tests used:
[1] = Half life in iv dosed rat; assay type: ADME, organism-based; settings: in vivo
[2] = Oral bioavailability in rat; assay type: ADME, organism-based; settings: in vivo

Compound: CCCN(CCC)CCCCN(C)Cc1ccc(CN(Cc2ncc[nH]2)Cc2nccn2C)cc1
- half-life [1]: 99 h
- bioavailability [2]: 21%
